Measured values published in ChEMBL document CHEMBL3044865, “Herbicidal Activity and Characteristics of Pyraflufen-ethyl for Controlling Broad-leaved Weeds in Cereals” (J Pestic Sci, 2002).
Calls of active or inactive are those of the source. The rule behind the calls is not given here.

How the values were obtained:
[1] = target: T1, Protoporphyrinogen oxidase 2 (Spinacia oleracea) (UniProt Q94IG7); assay: Inhibition of Stellaria media protoporphyinogen oxidase assessed as herbicidal activity at 10 g/ha measured after 21 days after treatment under greenhouse by time-course analysis; design: scale not given: the % may be the effect or the level left
T1 sequence (whole entry): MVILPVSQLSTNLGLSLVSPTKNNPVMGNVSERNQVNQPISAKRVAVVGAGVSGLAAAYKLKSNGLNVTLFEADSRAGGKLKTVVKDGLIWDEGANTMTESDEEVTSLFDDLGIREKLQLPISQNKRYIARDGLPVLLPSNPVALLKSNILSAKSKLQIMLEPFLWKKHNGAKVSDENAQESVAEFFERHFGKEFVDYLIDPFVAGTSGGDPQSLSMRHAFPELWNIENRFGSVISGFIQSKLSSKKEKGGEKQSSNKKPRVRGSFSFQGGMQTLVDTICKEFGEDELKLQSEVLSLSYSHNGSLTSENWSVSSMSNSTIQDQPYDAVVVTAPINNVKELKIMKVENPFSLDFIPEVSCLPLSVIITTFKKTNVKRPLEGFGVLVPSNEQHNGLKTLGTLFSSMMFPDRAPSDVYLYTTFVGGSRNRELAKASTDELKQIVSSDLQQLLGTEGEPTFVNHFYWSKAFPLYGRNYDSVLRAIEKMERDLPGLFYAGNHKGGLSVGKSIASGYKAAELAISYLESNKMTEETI

[2] = target: T2, Protoporphyrinogen oxidase, chloroplastic (Nicotiana tabacum) (UniProt O24163); assay: Inhibition of Veronica hederaefolia protoporphyrinogen oxidase by post-emergence herbicidal activity assay; settings: Veronica hederifolia
T2 sequence (whole entry): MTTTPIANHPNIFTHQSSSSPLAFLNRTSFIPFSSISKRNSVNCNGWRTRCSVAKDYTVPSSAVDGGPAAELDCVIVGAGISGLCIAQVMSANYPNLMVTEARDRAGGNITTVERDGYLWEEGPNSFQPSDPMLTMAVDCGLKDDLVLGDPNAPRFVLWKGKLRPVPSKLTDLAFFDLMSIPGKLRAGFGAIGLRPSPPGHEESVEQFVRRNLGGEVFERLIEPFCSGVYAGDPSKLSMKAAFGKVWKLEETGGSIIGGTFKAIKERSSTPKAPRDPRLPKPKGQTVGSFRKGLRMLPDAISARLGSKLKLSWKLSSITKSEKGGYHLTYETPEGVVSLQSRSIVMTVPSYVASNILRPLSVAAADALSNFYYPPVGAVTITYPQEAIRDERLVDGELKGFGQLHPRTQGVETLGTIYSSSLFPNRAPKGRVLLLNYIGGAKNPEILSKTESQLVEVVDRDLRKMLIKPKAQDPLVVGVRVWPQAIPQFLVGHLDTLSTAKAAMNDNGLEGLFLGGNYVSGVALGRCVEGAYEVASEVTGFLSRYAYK

[3] = target: T3, Protoporphyrinogen oxidase (Medicago truncatula) (UniProt G7L3C0); assay: Inhibition of Viola arvensis protoporphyrinogen oxidase by post-emergence herbicidal activity assay
T3 sequence (whole entry): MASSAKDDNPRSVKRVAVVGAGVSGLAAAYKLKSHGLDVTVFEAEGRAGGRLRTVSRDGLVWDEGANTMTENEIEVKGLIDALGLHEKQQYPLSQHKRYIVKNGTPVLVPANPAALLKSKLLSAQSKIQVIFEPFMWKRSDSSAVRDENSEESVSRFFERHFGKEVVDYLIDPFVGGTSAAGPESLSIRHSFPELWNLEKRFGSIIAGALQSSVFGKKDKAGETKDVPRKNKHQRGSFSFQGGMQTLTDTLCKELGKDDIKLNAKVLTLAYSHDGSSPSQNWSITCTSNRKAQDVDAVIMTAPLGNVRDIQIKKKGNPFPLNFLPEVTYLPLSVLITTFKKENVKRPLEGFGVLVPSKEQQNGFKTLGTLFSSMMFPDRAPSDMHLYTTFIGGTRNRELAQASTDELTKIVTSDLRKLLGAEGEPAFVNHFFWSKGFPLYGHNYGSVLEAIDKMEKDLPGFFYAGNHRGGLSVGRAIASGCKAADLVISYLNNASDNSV

[4] = target: T1, Protoporphyrinogen oxidase 2 (Spinacia oleracea); assay: Inhibition of Stellaria media protoporphyrinogen oxidase by post-emergence herbicidal activity assay
[5] = target: T4, Protoporphyrinogen IX oxidase (Cichorium intybus) (UniProt Q9SPL6); assay: Inhibition of Tripleurospermum maritimum subsp. inodorum protoporphyrinogen oxidase by post-emergence herbicidal activity assay
T4 sequence (whole entry): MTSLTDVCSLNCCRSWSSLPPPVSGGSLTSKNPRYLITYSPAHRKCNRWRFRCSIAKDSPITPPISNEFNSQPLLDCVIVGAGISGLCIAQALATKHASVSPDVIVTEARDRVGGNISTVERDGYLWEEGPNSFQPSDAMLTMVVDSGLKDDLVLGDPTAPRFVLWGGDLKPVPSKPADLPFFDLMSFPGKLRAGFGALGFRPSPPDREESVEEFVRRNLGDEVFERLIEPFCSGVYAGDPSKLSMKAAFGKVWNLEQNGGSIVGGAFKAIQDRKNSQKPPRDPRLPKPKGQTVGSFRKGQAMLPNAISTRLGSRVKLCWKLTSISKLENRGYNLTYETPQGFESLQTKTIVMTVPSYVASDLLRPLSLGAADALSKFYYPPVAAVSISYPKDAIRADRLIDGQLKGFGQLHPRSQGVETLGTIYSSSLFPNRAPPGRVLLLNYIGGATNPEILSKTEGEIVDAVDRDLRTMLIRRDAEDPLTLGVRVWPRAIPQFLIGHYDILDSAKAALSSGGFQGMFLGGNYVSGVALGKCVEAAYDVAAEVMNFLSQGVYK

[6] = target: T2, Protoporphyrinogen oxidase, chloroplastic (Nicotiana tabacum); assay: Inhibition of Galium aparine protoporphyrinogen oxidase by post-emergence herbicidal activity assay
[7] = target: T1, Protoporphyrinogen oxidase 2 (Spinacia oleracea); assay: Inhibition of Stellaria media protoporphyinogen oxidase assessed as herbicidal activity at 100 g/ha measured after 21 days after treatment under greenhouse by time-course analysis; design: scale not given: the % may be the effect or the level left
[8] = target: T1, Protoporphyrinogen oxidase 2 (Spinacia oleracea); assay: Inhibition of Stellaria media protoporphyinogen oxidase assessed as herbicidal activity at 50 g/ha measured after 9 days after treatment under greenhouse by time-course analysis; design: scale not given: the % may be the effect or the level left
Veronica hederifolia = assay: Herbicidal activity against Veronica hederaefolia assessed as killing measured after 21 days after treatment by post-emergence herbicidal activity assay; assay type: functional
Viola arvensis = assay: Herbicidal activity against Viola arvensis assessed as killing measured after 21 days after treatment by post-emergence herbicidal activity assay; assay type: functional
Stellaria media = assay: Herbicidal activity against Stellaria media assessed as killing measured after 21 days after treatment by post-emergence herbicidal activity assay; assay type: functional
[9] = test system: Tripleurospermum inodorum; assay: Herbicidal activity against Tripleurospermum maritimum subsp. inodorum assessed as killing measured after 21 days after treatment by post-emergence herbicidal activity assay; assay type: functional
Galium aparine = assay: Herbicidal activity against Galium aparine assessed as killing measured after 21 days after treatment by post-emergence herbicidal activity assay; assay type: functional
[10] = target: T1, Protoporphyrinogen oxidase 2 (Spinacia oleracea); assay: Inhibition of Stellaria media protoporphyinogen oxidase assessed as herbicidal activity at 100 g/ha measured after 1 days after treatment under greenhouse by time-course analysis
[11] = target: T1, Protoporphyrinogen oxidase 2 (Spinacia oleracea); assay: Inhibition of Stellaria media protoporphyinogen oxidase assessed as herbicidal activity at 0.3 g/ha measured after 14 days after treatment under greenhouse by time-course analysis; design: scale not given: the % may be the effect or the level left

Structure (SMILES)	Activity [1] [%]	ED90 [2] [gAi/ha]	ED90 [3] [gAi/ha]	ED90 [4] [gAi/ha]	ED90 [5] [gAi/ha]	ED90 [6] [gAi/ha]	Activity [7] [%]	Activity [8] [%]	ED90 (Veronica hederifolia) [gAi/ha]	ED90 (Viola arvensis) [gAi/ha]	ED90 (Stellaria media) [gAi/ha]	ED90 [9] [gAi/ha]	ED90 (Galium aparine) [gAi/ha]	Activity [10]	Activity [11] [%]
CCOC(=O)C(Cl)Cc1cc(-n2nc(C)n(C(F)F)c2=O)c(F)cc1Cl (stereo not given)	> 90	1	5	10	1.5	1.5	–	–	–	–	–	–	–	–	–
COC(=O)c1cc(Oc2ccc(Cl)cc2Cl)ccc1[N+](=O)[O-]	–	30	20	100	15	50	< 90	–	–	–	–	–	–	–	–
N#Cc1cc(I)c(O)c(I)c1 [IOXYNIL]	–	–	–	–	–	–	–	90	50	50	50	30	100	–	–
Cc1cc(Cl)ccc1O[C@@H](C)C(=O)O [MECOPROP-P]	–	–	–	–	–	–	–	–	300	1000	100	1000	300	Active	–
COC(=O)c1ccccc1S(=O)(=O)NC(=O)Nc1nc(C)nc(OC)n1 [METSULFURON-METHYL]	–	–	–	–	–	–	–	–	50	5	0.3	0.3	>100	–	90
